# Source: US6426355B1, “Heterocyclic carboxamide-containing thiourea inhibitors of herpes viruses containing phenylenediamine group” (American Home Products, priority 1998, dated 2002)
# Tests used:
# [1] = tested on: HCMV recombinant mutant virus (RV145); experiment: HCMV microtiter plate assay (beta-glucuronidase reporter); format: cell-based, Human Cytomegalovirus; details: for IC50: Human betaherpesvirus 5, Fibroblast, read-out: IC50 (ug/ml) HCMV
# In short: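 Replication was read out as virus-encoded β-glucuronidase activity, measured with a chromogenic or fluorogenic glucuronide substrate in cell lysates at 96 h post-infection. Infection of human foreskin fibroblasts with RV145 took place with compound present. IC50 was derived from a range of inhibitor amounts.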
# HSV-1 = experiment: HSV Antiviral (ELISA) assay; format: cell-based; details: for IC50: Human alphaherpesvirus 1, HSV-1 in Vero cells, read-out: IC50 (ug/ml) HSV
# In short: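 Replication measured as glycoprotein D signal in fixed cells: anti-gD antibody plus β-galactosidase-linked secondary, fluorogenic substrate read at 365/450 nm. Vero cells (2% FBS DMEM) received compound 30 min pre-infection, HSV-1 MOI 0.006, ~24 h incubation; IC50 relative to no-compound fluorescence.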
# VZV strain Ellen = experiment: VZV Antiviral (ELISA) assay; format: cell-based; details: for IC50: Human alphaherpesvirus 3, VZV strain Ellen in HFF cells, read-out: IC50 (ug/ml) VZV; for inhibition at 10 µg/mL: Human alphaherpesvirus 3, read-out: % inhibition 10 ug/ml VZV, at 10 ug/ml, VZV strain Ellen in HFF cells
# In short: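 Low-MOI (<0.1) Ellen infection of HFF overnight; cell mix plated 3.5×10^4/well with compound, DMEM + 2% FBS, 3 d, 37° C, 5% CO2. Fix, anti-gpII mAb ELISA, MUG substrate, fluorescence. IC50 vs compound-free signal.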
Compound,IC50 [1],IC50 (HSV-1),IC50 (VZV strain Ellen),inhibition at 10 µg/mL (VZV strain Ellen),IC50 (ug/ml) HCMV ([1]; HCMV in human foreskin fibroblasts),IC50 (ug/ml) HSV (HSV-1; HSV-1 in Vero cells),IC50 (ug/ml) VZV (VZV strain Ellen; VZV strain Ellen in HFF cells),"% inhibition 10 ug/ml VZV (VZV strain Ellen; at 10 ug/ml, VZV strain Ellen in HFF cells)"
"O=C(Nc1ccc(NC(=S)Nc2cccc(S(=O)(=O)CCO)c2)cc1)c1ccco1 [Example 1018, Furan-2-carboxylic acid (4-{3-[3-(2-hydroxy-ethanesulfonyl)-phenyl]-thioureido} -phenyl)-amide]",0.4 µg/mL,> 10 µg/mL,> 10 µg/mL,2%,,,,
"O=C(Nc1ccc(NC(=S)Nc2cccc(S(=O)(=O)CCO)c2)cc1)c1ccccc1F [Example 1019, 2-Fluoro-N-(4-{3-[3-(2-hydroxy-ethanesulfonyl)-phenyl]-thioureido} -phenyl)-benzamide]",1.5 µg/mL,> 10 µg/mL,,2%,,,,
"Cc1cc(NC(=S)NC(C)c2ccc(F)cc2)ccc1NC(=O)c1cc2ccccc2cn1 (centres unmarked) [Example 1126, Isoquinoline-3-carboxylic acid (4-{3-[1-(4-fluoro-phenyl)-ethyl]-thioureido}-2-methyl-phenyl)-amide]",5.8 µg/mL,> 10 µg/mL,0.7 µg/mL,,,,,
"CC(NC(=S)Nc1ccc(NC(=O)c2cnccn2)cc1)c1ccc(F)cc1 (centres unmarked) [Example 1127, Pyrazine-2-carboxylic acid (4-{3-[1-(4-fluoro-phenyl)-ethyl]-thioureido}-phenyl)-amide]",1 µg/mL,9.5 µg/mL,3.7 µg/mL,,,,,
"CC(NC(=S)Nc1ccc(NC(=O)c2cccs2)cc1)c1ccc(F)cc1 (centres unmarked) [Example 1128, Thiophene-2-carboxylic acid (4-{3-[1-(4-fluoro-phenyl)-ethyl]-thioureido}-phenyl)-amide]",1.3 µg/mL,> 10 µg/mL,> 10 µg/mL,,,,,
"CC(NC(=S)Nc1ccc(NC(=O)c2ccsc2)cc1)c1ccc(F)cc1 (centres unmarked) [Example 1129, Thiophene-3-carboxylic acid (4-{3-[1-(4-fluoro-phenyl)-ethyl]-thioureido}-phenyl)-amide]",1 µg/mL,1.9 µg/mL,> 10 µg/mL,,,,,
"CC(C)c1nc(C(=O)Nc2ccc(NC(=S)Nc3ccc(Cl)c(C(F)(F)F)c3)cc2)cs1 [Example 1130, 2-Isopropyl-thiazole-4-carboxylic acid {4-[3-(4-chloro-3-trifluoromethyl-phenyl)-thioureido]-phenyl}-amide]",2 µg/mL,2 µg/mL,5.5 µg/mL,,,,,
"CC(C)c1nc(C(=O)Nc2ccc(NC(=S)Nc3cc(Cl)cc(Cl)c3)cc2)cs1 [Example 1131, 2-Isopropyl-thiazole-4-carboxylic acid {4-[3-(3,5-dichloro-phenyl)-thioureido]-phenyl}-amide]",1.5 µg/mL,2.2 µg/mL,9 µg/mL,,,,,
"CC(C)c1nc(C(=O)Nc2ccc(NC(=S)Nc3ccc(Cl)c(Cl)c3)cc2)cs1 [Example 1132, 2-Isopropyl-thiazole-4-carboxylic acid {4-[3-(3,4-dichloro-phenyl)-thioureido]-phenyl}-amide]",1.2 µg/mL,2.6 µg/mL,3.9 µg/mL,,,,,
"CC(C)c1nc(C(=O)Nc2ccc(NC(=S)Nc3cc(C(F)(F)F)cc(C(F)(F)F)c3)cc2)cs1 [Example 1133, 2-Isopropyl-thiazole-4-carboxylic acid {4-[3-(3,5 bis-trifluoromethyl-phenyl)-thioureido]-phenyl}-amide]",1.5 µg/mL,6 µg/mL,> 10 µg/mL,,,,,
"CCCCc1nc(C(=O)Nc2ccc(NC(=S)Nc3ccc(Cl)c(Cl)c3)cc2)cs1 [Example 1134, 2-Butyl-thiazole-4-carboxylic acid {4-[3-(3,4-dichloro-phenyl)-thioureido]-phenyl}-amide]",1 µg/mL,2.4 µg/mL,1.6 µg/mL,,,,,
"CCCCc1nc(C(=O)Nc2ccc(NC(=S)Nc3ccc(Cl)c(C(F)(F)F)c3)cc2)cs1 [Example 1135, 2-Butyl-thiazole-4-carboxylic acid {4-[3-(4-chloro-3-trifluoromethyl-phenyl)-thioureido]-phenyl}-amide]",1.3 µg/mL,3.6 µg/mL,7.5 µg/mL,,,,,
"CCCCc1nc(C(=O)Nc2ccc(NC(=S)Nc3cc(Cl)cc(Cl)c3)cc2)cs1 [Example 1136, 2-Butyl-thiazole-4-carboxylic acid {4-[3-(3,5-dichloro-phenyl)-thioureido]-phenyl}-amide]",1.6 µg/mL,2.9 µg/mL,5 µg/mL,,,,,
"CCCCc1nc(C(=O)Nc2ccc(NC(=S)Nc3cc(C(F)(F)F)cc(C(F)(F)F)c3)cc2)cs1 [Example 1137, 2-Butyl-thiazole-4-carboxylic acid {4-[3-(3,5-bis-trifluoromethyl-phenyl)-thioureido]-phenyl}-amide]",0.6 µg/mL,> 10 µg/mL,3.5 µg/mL,,,,,
"Cc1nc(C(=O)Nc2ccc(NC(=S)Nc3cc(Cl)cc(Cl)c3)cc2)cs1 [Example 1138, 2-Methyl-thiazole-4-carboxylic acid {4-[3-(3,5-dichloro-phenyl)-thioureido]-phenyl}-amide]",0.65 µg/mL,> 10 µg/mL,> 10 µg/mL,,,,,
"Cc1nc(C(=O)Nc2ccc(NC(=S)Nc3ccc(Cl)c(Cl)c3)cc2)cs1 [Example 1139, 2-Methyl-thiazole-4-carboxylic acid {4-[3-(3,4-dichloro-phenyl)-thioureido]-phenyl}-amide]",1.2 µg/mL,3.7 µg/mL,6 µg/mL,,,,,
"Cc1nc(C(=O)Nc2ccc(NC(=S)Nc3cc(C(F)(F)F)cc(C(F)(F)F)c3)cc2)cs1 [Example 1140, 2-Methyl-thiazole-4-carboxylic acid {4-[3-(3,5-bis-trifluoromethyl-phenyl)-thioureido]-phenyl}-amide]",1.6 µg/mL,3.5 µg/mL,4 µg/mL,,,,,
"O=C(Nc1ccc(NC(=S)Nc2ccc(Cl)c(C(F)(F)F)c2)cc1)c1csc(-c2ccccc2)n1 [Example 1141, 2-Phenyl-thiazole-4-carboxylic acid {4-[3-(4-chloro-3-trifluoromethyl-phenyl)-thioureido]-phenyl}-amide]",1.9 µg/mL,> 10 µg/mL,> 10 µg/mL,,,,,
"O=C(Nc1ccc(NC(=S)Nc2cc(Cl)cc(Cl)c2)cc1)c1csc(-c2ccccc2)n1 [Example 1142, 2-Phenyl-thiazole-4-carboxylic acid {4-[3-(3,5-dichloro-phenyl)-thioureido]-phenyl}-amide]",1.8 µg/mL,> 10 µg/mL,> 10 µg/mL,,,,,
"O=C(Nc1ccc(NC(=S)Nc2ccc(Cl)c(Cl)c2)cc1)c1csc(-c2ccccc2)n1 [Example 1143, 2-Phenyl-thiazole-4-carboxylic acid {4-[3-(3,4-dichloro-phenyl)-thioureido]-phenyl}-amide]",7.5 µg/mL,> 10 µg/mL,> 10 µg/mL,,,,,
"[1,2,3]Thiadiazole-4-carboxylic acid {4-[3-(3,4,5-chloro-4-isoxazol-5-yl-phenyl)-thioureido]-phenyl}-amide [Example 990]",,,,,0.011 µg/mL,8 µg/mL,4.5 µg/mL,99%
